Measured values as given in the NIST ThermoML archive (doi:10.1016/j.fluid.2007.06.010).
Numbers after ± are expanded uncertainties.

Test: refractive index (Na D-line) (dimensionless)
Details: 298.15 K; 101.33 kPa; Liquid; Standard Abbe refractometry

SMILES	refractive index
CC(C)CC(C)(C)C [2,2,4-trimethylpentane]	1.389 ± 0.0007
CCOC(C)(C)C [2-ethoxy-2-methylpropane]	1.373 ± 0.0007
c1ccsc1 [thiophene]	1.5255 ± 0.0007
Cc1ccccc1 [toluene]	1.494 ± 0.0007
